Measurements: patent US20260248126A1, “BIOCIDE” (PURGOS APS, priority 2020, published 2026)
Entries after “also recorded” stand apart in the source; their conditions may differ.

Tests used:
[1] = system: Gloeophyllum trabeum. BAM Ebw. 109; assay: EN 113 test against wood destroying basidiomycetes (impregnated Scots pine sapwood); assay type: cell-based
[2] = system: bacterial count in paint; assay: In-can preservation of paint, long-time study (bacterial count over time, FIGS. 2-5); assay type: cell-based
Method: The results shown that 0.5% NBDA as sole active ingredient for in-can preservation are as successful over times up to at least as year as in-can preservation by 0.5% NBDA together with 0.5% hydrogen peroxide. FIGS. 2-4 show graphs visualizing data on long term effectivity as NBDA as an in-can additive for preservation of paint. […] In […] the development in bacterial count over time for the abovementioned additives are carried out at RT, 32° C. and 60° C. respectively. The starting point is a stained sample i.e., paint with an initial high bacteria count. […] The results shown are for the development in bacterial count over time for paint samples containing 0.5% NBDA alone and 0.5% NBDA+0.5% Hydrogen Peroxide.

CCCCN(CCO)CCO [NBDA, N-butyldiethanolamine]
Toxic value, Sol. conc. [1]: 1.01-1.43 % w/w
fungicide effect, preventing wood destruction ([1]; concentrations of 0.36%, 0.51%, 0.72%, 1.01% and 1.43%): effective as a fungicide for preventing wood destruction
long term effectivity, bacterial count over time ([2]; initial clean sample (low bacterial count), 0.5% NBDA, FIG. 5): as effective as 0.5% NBDA+0.5% Hydrogen peroxide for preventing bacterial growth in paint samples
long term effectivity, bacterial count over time ([2]; initial high count, 0.5% and 1% NBDA, RT, 32° C., 60° C., FIGS. 2-4): consistent long-term results for in-can preservation of paint; also recorded: as effective as NBDA+Hydrogen Peroxide for both NBDA concentrations at all three test temperatures long term; also recorded: highly effective as the sole biocide additive for in-can preservation of paints
long term effectivity, bacterial count over time ([2]; initial high count, 0.5% and 1% NBDA, RT, 32° C., 60° C., FIGS. 2-4, listed as N-butyldiethanolamine): no bacterial growth even for sustained periods of time; also recorded: sustained effect after more than a year
